Test results: ChEMBL document CHEMBL1134082, “Effect of zinc ion on the inhibition of carboxypeptidase A by imidazole-bearing substrate analogues” (Bioorg Med Chem Lett, 2001)

Columns and labels:
[1] = target: T1, Carboxypeptidase A1 (Bos taurus) (UniProt P00730); experiment: Cooperative effect of the inhibitory zinc ion in the inhibition of CPA by the compound
T1 sequence (whole entry): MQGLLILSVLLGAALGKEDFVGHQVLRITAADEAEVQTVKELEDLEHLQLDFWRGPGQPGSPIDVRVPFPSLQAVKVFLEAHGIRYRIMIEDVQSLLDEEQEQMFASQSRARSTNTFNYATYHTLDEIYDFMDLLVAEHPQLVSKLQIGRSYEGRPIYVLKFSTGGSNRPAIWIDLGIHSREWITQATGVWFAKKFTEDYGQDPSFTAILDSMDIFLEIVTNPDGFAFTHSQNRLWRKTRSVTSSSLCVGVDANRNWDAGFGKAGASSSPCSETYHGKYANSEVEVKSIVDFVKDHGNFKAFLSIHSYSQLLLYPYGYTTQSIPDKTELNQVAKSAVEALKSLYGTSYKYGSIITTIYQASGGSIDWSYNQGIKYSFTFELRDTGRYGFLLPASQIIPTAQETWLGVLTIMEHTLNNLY

[2] = Extent of enhancement of inhibitory potency of compound against carboxypeptidase A caused by zinc ion.
[3] = target: T1, Carboxypeptidase A1 (Bos taurus); experiment: Apparent inhibitory constant of carboxypeptidase A (CPA) in presence of Zinc ion
Carboxypeptidase A1 = target: T2, Carboxypeptidase A1 (Bos taurus, UniProt P00730); experiment: Inhibitory constant of carboxypeptidase A (CPA) in absence of Zinc ion.
T2 sequence (P00730 whole entry): T1 sequence (whole entry)

| SMILES | Cooperative effect [1] | Ki/K'i [2] | K'i [3] [µM] | Ki (Carboxypeptidase A1) [µM] |
| --- | --- | --- | --- | --- |
| O=C(O)C(CCCc1c[nH]cn1)Cc1ccccc1 (stereo unspecified) | 0.024 | 41.7 | 18 | – |
| O=C(O)C(CCCc1cnc[nH]1)Cc1ccccc1 (stereo unspecified) | – | – | – | 750 |
| O=C(O)C(CCc1c[nH]cn1)Cc1ccccc1 (stereo unspecified) | 0.0056 | 51.7 | 0.29 | 15 |
| O=C(O)C(Cc1ccccc1)Cc1c[nH]cn1 (stereo unspecified) | 0.0047 | 212 | 1.01 | 214 |
| O=C(O)C(Cc1ccccc1)c1c[nH]cn1 (stereo unspecified) | 1.88 | 0.53 | 0.49 | – |
| O=C(O)C(Cc1ccccc1)c1cnc[nH]1 (stereo unspecified) | – | – | – | 0.26 |
